The text below walks through data of PMC3705412, “PTP1B Inhibitory and Anti-Inflammatory Effects of Secondary Metabolites Isolated from the Marine-Derived Fungus Penicillium sp. JF-55” (Marine Drugs, 2013).

Assay [1] concerns TNF-α production in murine peritoneal macrophages. In words: TNF-α production in LPS-stimulated macrophages, ELISA. To be noted: Mus musculus, Peritoneal macrophage; pre-treated 12 h, LPS 1 μg/mL 18 h. The class given is cell-based, murine (C57BL/6 mice). How it is done:
(§1) C57BL/6 mice were purchased from Orient Bio Co. (Sungnam, Kyung-Kido, Korea). TG-elicited peritoneal macrophages were harvested four days after intraperitoneal (i.p.) injection of 3 mL of TG [37]. Peritoneal lavage was performed using 8 mL of Hanks’ Balanced Salt Solution containing 10 U/mL heparin. The cells were distributed in Roswell Park Memorial Institute medium (RPMI) supplemented with 10% heat-inactivated FBS, in 6-well tissue culture plates (5 × 10^6 cells/mL). The level of PGE2, TNF-α or IL-1β present in each sample was determined using a commercially available kit from R & D Systems. The assay was performed according to the manufacturer’s instructions. Briefly, murine peritoneal macrophages were cultured in 24-well plates, pre-incubated for 12 h with different concentrations of compounds 1–3, and then stimulated for 18 h with LPS. The cell culture supernatants were then immediately collected after treatment and centrifuged at 13,000× g for 2 min to remove particulate matter. The medium was added to a 96-well plate pre-coated with affinity-purified PGE2-specific polyclonal antibodies or the medium was added to a 96-well plate pre-coated with affinity-purified polyclonal antibodies that were specific to mouse TNF-α or IL-1β. An enzyme-linked polyclonal antibody specific for PGE2, mouse TNF-α or IL-1β was added to the wells for 20 h, followed by a final wash to remove any unbound antibody-enzyme reagent. A substrate solution was added, and the intensity of the color produced, which was measured at 450 nm (the correction wavelength was set at 540 nm or 570 nm), was proportional to the amount of PGE2, TNF-α or IL-1β present.

In assay [2] the test system is COX-2-derived PGE2 production in murine peritoneal macrophages. The experiment in a line: PGE2 production in LPS-stimulated macrophages, ELISA. Particulars: Mus musculus, Peritoneal macrophage; pre-treated 12 h, LPS 1 μg/mL 18 h. The class given is cell-based, murine (C57BL/6 mice). How it is done:
as §1
On the technique in general: In an ELISA, binding on a coated surface is turned into a signal by an enzyme label.

For assay [3], the target named is T1, PTP1B (human, recombinant) (Homo sapiens, UniProt P18031).
T1 construct: purchased BIOMOL Research Laboratories, Inc
T1 sequence (P18031 1-435): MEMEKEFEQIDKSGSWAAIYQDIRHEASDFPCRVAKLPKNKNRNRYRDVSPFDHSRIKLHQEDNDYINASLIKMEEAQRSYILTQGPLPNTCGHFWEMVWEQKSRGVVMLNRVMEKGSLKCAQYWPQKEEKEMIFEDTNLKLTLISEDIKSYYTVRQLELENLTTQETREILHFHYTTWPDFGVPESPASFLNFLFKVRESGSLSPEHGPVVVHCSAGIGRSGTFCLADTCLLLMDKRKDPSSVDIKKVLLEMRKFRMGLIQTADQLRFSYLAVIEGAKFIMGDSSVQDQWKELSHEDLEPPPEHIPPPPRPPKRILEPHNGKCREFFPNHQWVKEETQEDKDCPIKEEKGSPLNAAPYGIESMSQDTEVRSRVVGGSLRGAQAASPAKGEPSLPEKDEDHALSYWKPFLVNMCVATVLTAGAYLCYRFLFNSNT
In words: PTP1B assay (pNPP hydrolysis). The class given is biochemical. To be noted: for IC50: 2 mM pNPP, pH 6.0, 30 °C, 30 min, read-out: PTP1B inhibitory activity IC50. How it is done:
PTP1B (human, recombinant) was purchased from BIOMOL Research Laboratories, Inc. Enzyme activity was measured in a reaction mixture containing 2 mM p-nitrophenyl phosphate (pNPP) in 50 mM citrate, pH 6.0 (composition: 0.1 M NaCl, 1 mM EDTA, and 1 mM dithiothreitol (DTT)). The reaction mixture was placed in an incubator maintained at 30 °C for 30 min, and the reaction was terminated by the addition of 1 N NaOH. The amount of p-nitrophenol produced was estimated by measuring the increase in absorbance at 405 nm. The nonenzymatic hydrolysis of 2 mM pNPP was corrected by measuring the increase in absorbance at 405 nm in the absence of PTP1B enzyme. For the kinetic analysis, the reaction mixture consisted of different concentrations of pNPP as a PTP1B substrate in the absence or presence of compound 1, and assays were performed as described above. The Michaelis-Menten constant (Km) and maximum velocity (Vmax) of PTP1B were determined by the Lineweaver-Burk plot using a GraphPad Prism® 4 program (GraphPad Software Inc., San Diego, CA, USA).

For assay [4], the system named is CD4. Set-up: method as in doi:10.1351/pac199466102383. Particulars: previously reported ref 43; cited from earlier work.
For assay [5], the system named is IL-1β production in murine peritoneal macrophages. The experiment in a line: IL-1β production in LPS-stimulated macrophages, ELISA. Type of assay: cell-based, murine (C57BL/6 mice). To be noted: Mus musculus, Peritoneal macrophage; pre-treated 12 h, LPS 1 μg/mL 18 h. How it is done:
as §1

Assay [6] deals with iNOS-derived NO production in murine peritoneal macrophages. In words: Nitrite (NO) production in LPS-stimulated macrophages, Griess reaction. Particulars: Mus musculus, Peritoneal macrophage; pre-treated 12 h, LPS 1 μg/mL 18 h. The class given is cell-based, murine (C57BL/6 mice). How it is done: The expression of pro-inflammatory enzymes, including COX-2 and iNOS, plays an important role in immune-activated macrophages via the production of COX-2-derived PGE2 and iNOS-derived NO [20, 21]. To investigate the effects of compounds on iNOS-derived NO and COX-2-derived PGE2 production, and iNOS and COX-2 expression in LPS-stimulated macrophages, murine peritoneal macrophages were stimulated with LPS (1 μg/mL) for 18 h in the presence or absence of non-cytotoxic concentrations of compounds 1–3 (Figure S1). […] The finding that penstyrylpyrone (1) suppressed LPS-induced pro-inflammatory mediators, such as NO, PGE2, iNOS, and COX-2, led further investigation of the effects of penstyrylpyrone (1) on LPS-induced TNF-α and IL-1β production, which are other pro-inflammatory mediators.
C57BL/6 mice were purchased from Orient Bio Co. (Sungnam, Kyung-Kido, Korea). TG-elicited peritoneal macrophages were harvested four days after intraperitoneal (i.p.) injection of 3 mL of TG [37]. Peritoneal lavage was performed using 8 mL of Hanks’ Balanced Salt Solution containing 10 U/mL heparin. The cells were distributed in Roswell Park Memorial Institute medium (RPMI) supplemented with 10% heat-inactivated FBS, in 6-well tissue culture plates (5 × 10^6 cells/mL).
The production of nitrite, a stable end product of NO oxidation, was used as a measure of iNOS activity. The nitrite present in the conditioned medium was determined using a method based on the Griess reaction.
(In general: The Griess reaction detects nitrite, a stable product of nitric oxide.)

Broadly, the IC50 is the concentration that inhibits the measured activity by half. For the compound `CC1=Cc2oc3cc(O)c(O)c(C(=O)O)c3c(=O)c2CO1` [Anhydrofulvic acid (2), anhydrofulvic acid], the half-maximal inhibitory concentration (IC50) in assay [1] was greater than 40 µM; in assay [2], greater than 40 µM; in assay [3], 1.9 µM; in assay [5], greater than 40 µM; in assay [6], greater than 40 µM. In addition, the “Mode of PTP1B inhibition (Lineweaver-Burk, non-linear regression)” value in assay [3] (different concentrations of pNPP) is “competitive”. In addition, the CD4-binding activity entry in assay [4] was “weak”.
On to `Cc1cc(=O)c2c(o1)-c1c(cc(O)c(O)c1C(=O)O)OC2` [Citromycetin (3), citromycetin], for which the IC50 was greater than 40 µM in assay [1]; greater than 40 µM in assay [2]; greater than 25.8 µM in assay [3]; greater than 40 µM in assay [5]; greater than 40 µM in assay [6]. For the same compound, the CD4-binding activity result in assay [4] is given as “weak”.
